Like-named read-outs stand apart in the source and are kept apart here.
Experiments:
[1] = biological target: T1, full length human IRAK4 protein (Homo sapiens, UniProt Q9NWZ3); test: IRAK4 Biochemical Assay (Promega ADP-Glo IRAK4 Kinase Enzyme System); conditions: 3 nM enzyme, 2 μM MBP, 250 μM ATP, 60 min at room temperature, ADP-Glo luminescence
T1 construct: Purified full length human IRAK4 protein; purchased Signal Chem 112-10G-125
T1 sequence (Q9NWZ3 1-460): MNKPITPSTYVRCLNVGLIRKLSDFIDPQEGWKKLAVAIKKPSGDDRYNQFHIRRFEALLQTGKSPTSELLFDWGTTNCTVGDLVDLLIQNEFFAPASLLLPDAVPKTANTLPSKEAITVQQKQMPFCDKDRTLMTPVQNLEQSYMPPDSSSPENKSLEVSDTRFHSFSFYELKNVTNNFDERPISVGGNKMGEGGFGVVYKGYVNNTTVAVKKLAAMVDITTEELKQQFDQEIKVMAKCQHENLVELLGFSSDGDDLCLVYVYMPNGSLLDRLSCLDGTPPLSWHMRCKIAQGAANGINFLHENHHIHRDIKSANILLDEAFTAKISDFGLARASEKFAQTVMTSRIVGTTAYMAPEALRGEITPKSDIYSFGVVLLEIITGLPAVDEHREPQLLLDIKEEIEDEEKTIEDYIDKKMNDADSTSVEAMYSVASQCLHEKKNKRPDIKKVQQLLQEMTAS
Protocol: For the routine compound screening, an IRAK4 kinase assay was performed as follows using Promega ADP-Glo IRAK4 Kinase Enzyme System (Promega, Cat #2198-AD). Purified full length human IRAK4 protein (Signal Chem; Cat #112-10G-125) was diluted to a concentration 6 nM in assay buffer (25 mM MOPS, pH 7.2, 12.5 mM β-glycerol-phosphate, 25 mM MgCl2, 5 mM EGTA, 2 mM EDTA, 0.0025% Brij-35, add 0.25 mM DTT to Kinase Assay Buffer prior to use) containing IRAK4 inhibitor at 2× the final concentration in 0.4% DMSO. The reaction was performed in PerkinElmer Proxiplate-384 plus white plate (Fisher Scientific, Cat #50-905-2761) and started by the addition of an equal volume of the assay buffer containing 4 μM native swine myelin basic protein (MBP) and 500 μM ATP to achieve a final concentration of 3 nM enzyme, 2 μM MBP, 250 μM ATP, 1× compound, and 0.2% DMSO. The kinase reaction was allowed to run for 60 min at room temperature (25-27° C.), then 5 μL of ADP-Glo was added to the reaction in each well followed by 40 minutes-incubation at RT. To detect converted ATP, 10 μL Detection Buffer was added into each well and Incubate at RT in dark for 30 minutes. Finally, luminescence was read using Tecan with 1000 ms of integration time. The luminescent signal positively correlates with ADP amount and kinase activity. Data was analyzed by GraphPad Prism and IC50 was calculated using function log(inhibitor) vs. response—Variable slope (four parameters). Percentage of inhibition was calculated as below.
(§1) % inhibition=(1−(Reading(Sample)−Reading(Negative Control))/(Reading(Positive Control)−Reading(Negative Control)))×100%
The 0% inhibition value comes from the Reading of Positive Control wells having 0 nM compound. The 100% inhibition value comes from the Reading of Negative Control wells having no IRAK4 kinase.

IRAK4 = biological target: T2, IRAK4 (Homo sapiens, UniProt Q9NWZ3); test: IRAK4 Human PBMC TNFα Cell Based Assay (AlphaLISA); conditions: TNFα in culture medium
T2 construct: host or cells: human PBMCs
T2 sequence (Q9NWZ3 1-460): T1 sequence (Q9NWZ3 1-460)
Protocol: In this assay, serially diluted compounds were incubated with 1×10^4 human peripheral blood mononuclear cells (PBMCs) from STEMCELL (Cat #70025.1) per well of 384-well plate (Fisher Scientific; 50-905-2761) and cultured with TexMACS medium (Miltenyi, Cat #130-097-196), stimulated by R848 (0.5 μM) or IL-1β (10 ng/ml). Plates were covered with lids and incubated for 4 h (R848, Fisher Scientific, Cat #NC9801605) or 24 h (IL-1β, Fisher Scientific, Cat #ENRIL1BI) at 37° C. in a humidified tissue-culture incubator. After a brief centrifugation at 1000 rpm for 5 minutes, 5 μl of culture medium was used for the measurement of the TNFα amount using TNFα (human) AlphaLISA Detection Kit (PerkinElmer, Cat #AL208C) according to manufacturer's protocol. A biotinylated anti-TNFα antibody binds to the Streptavidin-coated Donor beads while another anti-TNFα antibody is conjugated to AlphaLISA Acceptor beads. In the presence of the TNFα, the beads come into close proximity. The excitation of the Donor beads causes the release of singlet oxygen molecules that triggers a cascade of energy transfer in the Acceptor beads, resulting in a sharp peak of light emission at 615 nm. AlphaLISA assay plates were read using PHERAstar. Percentage of inhibition was calculated as below:
as §1
The 0% inhibition value comes from the Reading of Positive Control wells having 0 nM compound. The 100% inhibition value comes from the Reading of Negative Control wells having no R848 or IL-1β.

[2] = human PBMCs stimulated by IL-1β (10 ng/ml), 24 h, read-out: IRAK4 PBMC AlphaLISA IL-1β (IC50)
[3] = human PBMCs stimulated by R848 (0.5 μM), 4 h, read-out: IRAK4 PBMC AlphaLISA R848 (IC50)

IC50 [1] [µM]	IRAK4 Biochemical Assay Max Inhibition (%) [1] [%]	IC50 (IRAK4; [2]) [µM]	IC50 (IRAK4; [3]) [µM]	SMILES
0.012	109			c1nn(C2CCOCC2)cc1Nc1nc(N[C@H]2CC[C@H](N3CCOCC3)CC2)c2c(-c3cn[nH]c3)n[nH]c2n1 [Example 3, N^4-((1r,4r)-4-morpholinocyclohexyl)-3-(1H-pyrazol-4-yl)-N^6-(1-(tetrahydro-2H-pyran-4-yl)-1H-pyrazol-4-yl)-1H-pyrazolo[3,4-d]pyrimidine-4,6-diamine]
0.0082	100	0.025	0.024	c1cncc(-c2n[nH]c3nc(Nc4cnn(C5CCOCC5)c4)nc(N[C@H]4CC[C@H](N5CCOCC5)CC4)c23)c1 [Example 2, N^4-((1r,4r)-4-morpholinocyclohexyl)-3-(pyridin-3-yl)-N^6-(1-(tetrahydro-2H-pyran-4-yl)-1H-pyrazol-4-yl)-1H-pyrazolo[3,4-d]pyrimidine-4,6-diamine]
0.016	100	0.056	0.063	c1ccc(-c2n[nH]c3nc(Nc4cnn(C5CCOCC5)c4)nc(N[C@H]4CC[C@H](N5CCOCC5)CC4)c23)cc1 [Example 5, N^4-((1r,4r)-4-morpholinocyclohexyl)-3-phenyl-N^6-(1-(tetrahydro-2H-pyran-4-yl)-1H-pyrazol-4-yl)-1H-pyrazolo[3,4-d]pyrimidine-4,6-diamine]
0.012	100	0.0009	0.0016	Cc1cc(Nc2nc(N[C@H]3CC[C@H](N4CCOCC4)CC3)c3cn[nH]c3n2)sn1 [Example 6, N^6-(3-methylisothiazol-5-yl)-N^4-((1r,4r)-4-morpholinocyclohexyl)-1H-pyrazolo[3,4-d]pyrimidine-4,6-diamine]
0.0042	100	0.016	0.035	Brc1n[nH]c2nc(Nc3cnn(C4CCOCC4)c3)nc(N[C@H]3CC[C@H](N4CCOCC4)CC3)c12 [Example 1, 3-bromo-N^4-((1r,4r)-4-morpholinocyclohexyl)-N^6-(1-(tetrahydro-2H-pyran-4-yl)-1H-pyrazol-4-yl)-1H-pyrazolo[3,4-d]pyrimidine-4,6-diamine]

Source: US20220144842A1, “IRAK INHIBITORS, PREPARATION METHOD AND MEDICINAL USES THEREOF” (Eternity Bioscience Inc., priority 2020, published 2022)
